# From US20110053916A1 (Vertex Pharmaceuticals Incorporated, priority 2009, published 2011)
# Tests used:
# [1] = system: Mycobacterium tuberculosis H37Ra; assay: Mycobacterium tuberculosis growth inhibition assay (microtiter dilution, resazurin reduction); assay type: cell-based; settings: 7H9 broth, 9 days + 24 h resazurin, lowest concentration inhibiting resazurin reduction by >70%, several symbols in a cell = repeat determinations
# Procedure, shortened: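 M. tuberculosis H37Ra at ~1×10^6 cells/mL in 7H9 broth plus 10% ADC, exposed to 2-fold serial dilutions (7 or 11 steps) at 37 °C for 9 days. Resazurin then added, fluorescence (492/595 nm) read at baseline and after 24 h; MIC = lowest concentration inhibiting resazurin reduction >70% versus DMSO.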
# PknB = target: T1, PknB (Mycobacterium tuberculosis, UniProt P9WI81); assay: biochemical; design: species or system M. tuberculosis; settings: 3 nM PknB, 6 uM GarA, 3 μM ATP, 30 min; competitive tight-binding fit; several symbols in a cell = repeat determinations; read-out: Ki Values
# T1 construct: made in house
# T1 sequence (P9WI81 whole entry): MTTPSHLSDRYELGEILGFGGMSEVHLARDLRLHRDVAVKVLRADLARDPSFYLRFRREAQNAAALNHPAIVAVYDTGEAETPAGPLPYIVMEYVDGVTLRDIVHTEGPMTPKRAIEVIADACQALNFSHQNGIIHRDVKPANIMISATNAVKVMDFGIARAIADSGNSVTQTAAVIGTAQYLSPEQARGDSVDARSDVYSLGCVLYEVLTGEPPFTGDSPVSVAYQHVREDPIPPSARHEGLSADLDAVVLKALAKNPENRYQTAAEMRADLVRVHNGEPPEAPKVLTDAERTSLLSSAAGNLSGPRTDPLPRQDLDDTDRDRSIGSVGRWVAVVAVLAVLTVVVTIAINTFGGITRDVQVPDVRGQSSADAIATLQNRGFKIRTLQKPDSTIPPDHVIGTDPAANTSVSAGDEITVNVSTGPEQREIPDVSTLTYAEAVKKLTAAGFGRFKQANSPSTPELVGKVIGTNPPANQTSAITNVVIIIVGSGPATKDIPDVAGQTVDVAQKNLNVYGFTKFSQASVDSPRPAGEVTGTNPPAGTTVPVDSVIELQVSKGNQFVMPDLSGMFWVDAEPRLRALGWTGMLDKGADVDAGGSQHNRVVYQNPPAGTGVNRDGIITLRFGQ
SMILES,MIC values [1],Ki (PknB) [nM]
"NS(=O)(=O)c1ccc(-c2ncc(Cl)c(Nc3cc(C4CC4)[nH]n3)n2)o1 [Compound 240, 5-(5-chloro-4-(5-cyclopropyl-1H-pyrazol-3-ylamino)pyrimidin-2-yl)furan-2-sulfonamide]",B++,10 to 50
"C#Cc1cnc(C2=CCN(C(=O)OC(C)(C)C)CC2)nc1Nc1cc(C2CC2)[nH]n1 [Compound 250, Tert-butyl 4-(4-(5-cyclopropyl-1H-pyrazol-3-ylamino)-5-ethynylpyrimidin-2-yl)-5,6-dihydropyridine-1(2H)-carboxylate]",B+,100 to 500
"NS(=O)(=O)c1ccc(-c2ncc(NC=O)c(Nc3cc(C4CC4)[nH]n3)n2)s1 [Compound 252, N-[4-[(5-cyclopropyl-1H-pyrazol-3-yl)amino]-2-(5-sulfamoyl-2-thienyl)-pyrimidin-5-yl]formamide]",B+,10 to 50
"N#CCC(=O)Nc1cnc(-c2ccc(S(N)(=O)=O)s2)nc1Nc1cc(C2CC2)[nH]n1 [Compound 254, 2-cyano-N-[4-[(5-cyclopropyl-1H-pyrazol-3-yl)amino]-2-(5-sulfamoyl-2-thienyl)-pyrimidin-5-yl]acetamide]","B, C",100 to 500
"C=CCCC(=O)c1ncc(Cl)c(Nc2cc(C3CC3)[nH]n2)n1 [Compound 256, 1-[5-chloro-4-[(5-cyclopropyl-1H-pyrazol-3-yl)amino]-pyrimidin-2-yl]pent-4-en-1-one]",B+,500 to 1000
"CC(C)(C)NS(=O)(=O)c1ccc(-c2ncc(Cl)c(Nc3cc(C4CCN(C(=O)OCc5ccccc5)C4)n[nH]3)n2)s1 (stereo not drawn) [Compound 257, benzyl 3-[5-[[5-chloro-2-[5-(tert-butylsulfamoyl)-2-thienyl]-pyrimidin-4-yl]amino]-1H-pyrazol-3-yl]pyrrolidine-1-carboxylate]",B++,> 4000
"CC(C)(C)OC(=O)NCc1ccc(-c2ncc(Cl)c(Nc3cc(C4CC4)n[nH]3)n2)s1 [Compound 261, tert-butyl [[5-[5-chloro-4-[(5-cyclopropyl-2H-pyrazol-3-yl)amino]-pyrimidin-2-yl]-2-thienyl]methylamino]formate]",B++,100 to 500
"Cc1cc(Nc2cc(C3CC3)[nH]n2)nc(-c2ccc(S(N)(=O)=O)s2)n1 [Compound 265, 5-[4-[(5-cyclopropyl-1H-pyrazol-3-yl)amino]-6-methyl-pyrimidin-2-yl]thiophene-2-sulfonamide]",B++,1 to 10
"Cc1nc(-c2ccc(S(N)(=O)=O)s2)nc(Nc2cc(C3CC3)[nH]n2)c1Cl [Compound 266, 5-[5-chloro-4-[(5-cyclopropyl-1H-pyrazol-3-yl)amino]-6-methyl-pyrimidin-2-yl]thiophene-2-sulfonamide]","A+, A, A, C",1 to 10
"C#Cc1c(C)nc(-c2ccc(S(N)(=O)=O)s2)nc1Nc1cc(C2CC2)[nH]n1 [Compound 267, 5-(4-(3-cyclopropyl-1H-pyrazol-5-ylamino)-5-ethynyl-6-methylpyrimidin-2-yl)thiophene-2-sulfonamide]","A+, A",1 to 10
"C#Cc1c(C)nc(-c2ccc(S(=O)(=O)NC(C)(C)C)s2)nc1Nc1cc(C2CC2)[nH]n1 [Compound 268, 5-[4-[(5-cyclopropyl-1H-pyrazol-3-yl)amino]-5-ethynyl-6-methyl-pyrimidin-2-yl]-N-tert-butyl-thiophene-2-sulfonamide]",B++,10 to 50
"CC(C)(C)NS(=O)(=O)c1ccc(-c2ccc(N)c(Nc3cc(C4CC4)n[nH]3)n2)s1 [Compound 273, 5-[5-amino-6-[(5-cyclopropyl-2H-pyrazol-3-yl)amino]-2-pyridyl]-N-tert-butyl-thiophene-2-sulfonamide]",B+,10 to 50
"NS(=O)(=O)c1ccc(-c2ccc([N+](=O)[O-])c(Nc3cc(C4CC4)n[nH]3)n2)s1 [Compound 275, 5-[6-[(5-cyclopropyl-2H-pyrazol-3-yl)amino]-5-nitro-2-pyridyl]thiophene-2-sulfonamide]",B++,1 to 10
"CNc1cc(Nc2cc(C3CC3)n[nH]2)nc(-c2ccc(S(N)(=O)=O)s2)n1 [Compound 279, 5-[4-[(5-cyclopropyl-2H-pyrazol-3-yl)amino]-6-methylamino-pyrimidin-2-yl]thiophene-2-sulfonamide]",B++,1000 to 2000
"NS(=O)(=O)c1ccc(-c2nc(Nc3cc(C4CC4)n[nH]3)cc(N3CCCC3)n2)s1 [Compound 284, 5-[4-[(5-cyclopropyl-2H-pyrazol-3-yl)amino]-6-pyrrolidin-1-yl-pyrimidin-2-yl]thiophene-2-sulfonamide]",B++,100 to 500
"COC(=O)NCc1ccc(-c2ncc(Cl)c(Nc3cc(C4CC4)n[nH]3)n2)s1 [Compound 287, methyl [[5-[5-chloro-4-[(5-cyclopropyl-2H-pyrazol-3-yl)amino]-pyrimidin-2-yl]-2-thienyl]methylamino]formate]",B+,10 to 50
"NS(=O)(=O)c1ccc(-c2nc(Nc3cc(C4CC4)n[nH]3)cc(N3CCOCC3)n2)s1 [Compound 290, 5-[4-[(5-cyclopropyl-2H-pyrazol-3-yl)amino]-6-morpholino-pyrimidin-2-yl]thiophene-2-sulfonamide]",B++,500 to 1000
"COc1cc(Nc2cc(C3CC3)n[nH]2)nc(-c2ccc(S(N)(=O)=O)s2)n1 [Compound 293, 5-[4-[(5-cyclopropyl-2H-pyrazol-3-yl)amino]-6-methoxy-pyrimidin-2-yl]thiophene-2-sulfonamide]",B++,100 to 500
"Nc1cc(Nc2cc(C3CC3)n[nH]2)nc(-c2ccc(S(N)(=O)=O)s2)n1 [Compound 294, 5-[4-amino-6-[(5-cyclopropyl-2H-pyrazol-3-yl)amino]-pyrimidin-2-yl]thiophene-2-sulfonamide]",B+,2000 to 4000
"CC(C)(C)NS(=O)(=O)c1ccc(-c2nccc(Nc3cc(C4CC4)[nH]n3)n2)cn1 [Compound 300, 5-[4-[(5-cyclopropyl-1H-pyrazol-3-yl)amino]pyrimidin-2-yl]-N-tert-butyl-pyridine-2-sulfonamide]",B+,50 to 100
"NS(=O)(=O)c1ccc(-c2nccc(Nc3cc(C4CC4)[nH]n3)n2)cn1 [Compound 301, 5-[4-[(5-cyclopropyl-1H-pyrazol-3-yl)amino]pyrimidin-2-yl]pyridine-2-sulfonamide]",B+,50 to 100
"NC(=O)c1ncc(Cl)c(Nc2cc(C3CC3)[nH]n2)n1 [Compound 303, 5-chloro-4-[(5-cyclopropyl-1H-pyrazol-3-yl)amino]-pyrimidine-2-carboxamide]",B+,2000 to 4000
"NC(=S)c1ncc(Cl)c(Nc2cc(C3CC3)[nH]n2)n1 [Compound 305, 5-chloro-4-[(5-cyclopropyl-1H-pyrazol-3-yl)amino]-pyrimidine-2-carbothioamide]","A, B++",500 to 1000
"O=S(=O)(O)c1ccc(-c2ncc(Cl)c(Nc3cc(C4CC4)[nH]n3)n2)s1 [Compound 306, 5-[5-chloro-4-[(5-cyclopropyl-1H-pyrazol-3-yl)amino]-pyrimidin-2-yl]thiophene-2-sulfonic acid]",B+,10 to 50
